The record followed here is US12338199B2, “Bis-octahydrophenanthrene carboxamides and protein conjugates thereof” (REGENERON PHARMACEUTICALS, INC., priority 2017, dated 2025).

As a reminder, the IC50 is the concentration at which inhibition is half-maximal.

One assay has as its target T1, LXR beta (Homo sapiens, UniProt P55055).
T1 construct: LXR alpha or beta LBD-GST; purchased ThermoFisher PV4658
T1 sequence (P55055 222-460 limits assumed): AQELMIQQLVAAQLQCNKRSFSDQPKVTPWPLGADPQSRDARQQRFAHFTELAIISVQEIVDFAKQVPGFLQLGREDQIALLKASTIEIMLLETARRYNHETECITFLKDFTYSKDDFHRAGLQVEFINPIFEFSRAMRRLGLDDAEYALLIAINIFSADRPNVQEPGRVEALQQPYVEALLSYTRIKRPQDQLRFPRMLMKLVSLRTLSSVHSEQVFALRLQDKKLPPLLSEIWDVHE
The experiment in a line: LanthaScreen TR-FRET LXR beta Coactivator Assay (cell-free binding). The note with it: TR-FRET, 12-point curve; read-out: Cell free binding LXRβ IC50.

The next assay deals with THP1/LXR-Luc cells. The experiment in a line: THP1/LXR-Luc luciferase reporter bioassay. Format: cell-based. The note with it: Homo sapiens, THP-1, 48 hours. The method in brief: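 THP1 cells stably carrying an LXR-response-element firefly luciferase reporter were seeded at 30,000/well in RPMI/10% FBS and given 3-fold dilutions (100 nM to 0.01 nM) for 48 or 72 h. Luminescence was read with One-Glo. EC50 came from a 4-parameter fit of a 10-point curve, and fold activation was taken relative to maximal free-payload activation.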
A general note: A reporter such as luciferase makes a cellular process visible.

A further assay deals with THP1/LXR-Luc/Her2 cells. The experiment in a line: THP1/LXR-Luc/Her2 luciferase reporter bioassay. Format: cell-based. The note with it: Homo sapiens. An excerpt: A bioassay was developed to assess the activity of LXR agonists after internalization of an agonist or of a ncADC into cells and binding to LXR, a nuclear receptor, using a commercially available LXR reporter (referred to as LXR-Luc) that contains the firefly luciferase gene under control by minimal CMV promoter and tandem repeats of the LXR transcriptional response element. For this assay, a THP1 cell line, which is a human monocytic leukaemia line, was engineered to express full length human Her2 (expressing amino acids M1 through V1255 of accession number NP_004439.2). The subsequent stable cell line was further transduced with a Cignal LXR Luc Reporter (Qiagen, Cat # CLS-7041L). The resulting stable cell line is referred to herein as THP1/Her2/LXR-Luc. The Her2 cell surface expression on THP1/Her2/LXR-Luc cell line was confirmed by FACS (data not shown).
This example assessed the ability of the LXR agonists provided herein, reference compounds, and anti-Her2 antibody-LXR ncADC to activate LXR. The samples were tested in the THP1/LXR-Luc/Her2 bioassay. For the assay, either THP1/LXR-Luc cells or THP1/LXR-Luc/Her2 cells were seeded onto white 96 well plates at 30,000 cells/well in media containing RPMI supplemented with 10% FBS and pencillin/streptomycin (complete media). Subsequently 3-fold serial dilutions of antibody drug conjugates, unconjugated antibodies, or free payloads were added to the cells at final concentration ranging from 100 nM to 0.01 nM. After 48-hour or 72-hour incubation, luciferase activity was determined after the addition of One-Glo™ reagent (Promega, Cat # E6130) to each well of cells. Relative light units (RLUs) were measured on a Victor luminometer (PerkinElmer) and the EC5o values were determined using a four-parameter logistic equation over a 10-point dose response curve (GraphPad Prism) (FIG. 15). The fold activation is calculated based on the maximum activation of the free payload 9d.

The subject of a further assay is ABCG1. The experiment in a line: ABCG1 mRNA induction in differentiated THP-1 macrophages (TaqMan). Format: cell-based, human. The note with it: THP1 macrophages, 24-hour treatment; magnitude in words. How it is done:
To determine the ability of LXR agonists to activate ABCA1 and ABCG1 genes, the mRNA levels of these two genes in differentiated macrophages was measured. […] Cells were differentiated into macrophages by treatment with 100 nM Phorbol-12 myristate 13-acetate (Sigma, # P8139), which was added to the media described above, for 72 hours. […] Chloroform was then used for phase separation. The aqueous phase, containing total RNA, was purified using MagMAX™-96 for Microarrays Total RNA Isolation Kit (Ambion, Cat # AM1830) and reverse-transcribed into cDNA using SuperScript® VILO™ Master Mix (Invitrogen, Cat #11755050) as per the manufacturer's instructions. TaqMan® was performed using Gene Expression Master Mix, the ABI 7900HT Sequence Detection System (Applied Biosystems) and the primers and probes indicated below in Table 9. The GAPDH gene was used as the internal control gene to normalize any cDNA input differences.
A general note: Quantitative PCR measures a nucleic acid by following its amplification.

In the case of `C[C@]1(C(=O)NC(=O)[C@@]2(C)CCC[C@]3(C)c4cc(O)ccc4CC[C@@H]23)CCC[C@]2(C)c3cc(N)ccc3CC[C@@H]12` [Compound 9d, (1S,4aS,10aR)—N-[(1S,4aS,10aR)-6-Amino-1,4a-dimethyl-1,2,3,4,4a,9,10,10a-octahydrophenanthrene-1-carbonyl]-6-hydroxy-1,4a-dimethyl-1,2,3,4,4a,9,10,10a-octahydrophenanthrene-1-carboxamide], at LXR beta, the half-maximal inhibitory concentration (IC50) is below 10 nM. Moreover, the EC50 in the assay on THP1/LXR-Luc cells (read-out: Activation of THP1/LXR-Luc cells: EC50) is at most 1 nM; in the assay with THP1/LXR-Luc/Her2 cells (THP-1, 48 h, 48-hour time point), 1.6 nM; with THP1/LXR-Luc/Her2 cells (THP-1, 48 h, 48 hours, unit inferred, values correspond to M) it was 1.6 nM; with THP1/LXR-Luc/Her2 cells (THP-1, 72 h, 72-hour time point), 2.8 nM; in the assay with THP1/LXR-Luc/Her2 cells (THP-1, 72 h, 72 hours), 2.8 nM. Moreover, the Emax in the assay on THP1/LXR-Luc cells (relative to maximum activation of free payload 9d, read-out: Activation of THP1/LXR-Luc cells: Fold of activation) is above 75%. The “ABCG1 induction EC50” value in the assay on ABCG1 was “sub-picomolar”.
